Source: the supplement of paper PMC11208160

Assay: recombinant barcode read abundance after kanamycin selection (control-corrected) (log10(CPM+1)); higher = more efficient recombination; sequences stand for … in AGTGCAGAGAAAATCGGCCAGTTTTCTCTGCCTGCAGTCCGCATGCCGT…AGATTTATGCAGCGGACTGCCTTTCTCCCAAAGTGATAAACCGGACAGTATCATGGACCGGTTTTCCCGGTAATCCGTATTTGCAAGGTTGGTTTCACT; site = the 11-nt target
How it was run: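 Targets were screened in pooled form in E. coli against IS621 bridge RNA target-binding loops. Recombination efficiency is based on barcode counts at recombinant junctions in counts per million, averaged and corrected for the control. Numbers are shown as log10(CPM+1), with duplicate plates on chloramphenicol/ampicillin LB agar (control) or chloramphenicol/ampicillin/kanamycin with 0.1 mM IPTG.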
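Note: IS621 recombinase and bridge RNA in Escherichia coli cells.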

Sequence	recombinant barcode read abundance (log10)
CGCGCGGCTTGGGTTCTAACCTGTTGCCT (site CGCGCGGCTAG)	0.251
CGCGCGGCTTGGGTTCTAACCTGTTGCCT (site CGCGGGGCTAG)	0.266
CGCGGTTCTTGGGTTCTAACCTGTTGCCT (site CGAGGTTCTAG)	0.339
CGCGGTTCTTGGGTTCTAACCTGTTGCCT (site CGCGGTTCTAG)	0.0855
CGCGTTGCTTGGGTTCTAACCTGTTGCCT (site AAGCCCACTCC)	0.0136
CGCGTTGCTTGGGTTCTAACCTGTTGCCT (site CGCGTTGCTAG)	0.48
CGCTCGTCTTGGGTTCTAACCTGTTGCCT (site CGCTAGTCTAG)	0.0163
CGCTCGTCTTGGGTTCTAACCTGTTGCCT (site CGCTCGTCTAG)	0.00559
CGCTCGTCTTGGGTTCTAACCTGTTGCCT (site CGCTGGTCTAG)	0.0376
CGCTCGTCTTGGGTTCTAACCTGTTGCCT (site CGCTTGTCTAG)	0.163
CGCTGTCCTTGGGTTCTAACCTGTTGCTT (site CGCTGACCTAA)	0.156
CGCTGTCCTTGGGTTCTAACCTGTTGCTT (site CGCTGCCCTAA)	0.148
CGCTGTCCTTGGGTTCTAACCTGTTGCTT (site CGCTGGCCTAA)	0.348
CGCTGTCCTTGGGTTCTAACCTGTTGCTT (site CGCTGTCCTAA)	0.176
CGGAACCCTTGGGTTCTAACCTGTTGCCG (site CGGAACCCTCG)	1.22
CGGAACCCTTGGGTTCTAACCTGTTGCCG (site CGGAGCCCTTG)	0.11
CGGAAGACTTGGGTTCTAACCTGTTGCCT (site CGGAAGACTAG)	1.98
CGGAAGACTTGGGTTCTAACCTGTTGCCT (site CGGAAGCCTAG)	0.121
CGGAAGACTTGGGTTCTAACCTGTTGCCT (site CGGAAGGCTAG)	0.537
CGGAAGACTTGGGTTCTAACCTGTTGCCT (site CGGAAGTCTAG)	0.516
CGGAAGCCTTGGGTTCTAACCTGTTGCCT (site CGGAAGACTAG)	0.0744
CGGAAGCCTTGGGTTCTAACCTGTTGCCT (site CGGAAGCCTAG)	1.74

Sequence	recombinant barcode read abundance (log10)
CGGAAGCCTTGGGTTCTAACCTGTTGCCT (site CGGAAGGCTAG)	0.0821
CGGAAGCCTTGGGTTCTAACCTGTTGCCT (site CGGAAGTCTAG)	0.818
CGGAAGGCTTGGGTTCTAACCTGTTGCCT (site CGGAAGACTAG)	0.036
CGGAAGGCTTGGGTTCTAACCTGTTGCCT (site CGGAAGCCTAG)	0.0918
CGGAAGGCTTGGGTTCTAACCTGTTGCCT (site CGGAAGGCTAG)	0.89
CGGAAGGCTTGGGTTCTAACCTGTTGCCT (site CGGAAGTCTAG)	0.401
CGGAATCCTTGGGTTCTAACCTGTTGCGT (site CGGAATCCTAA)	0.159
CGGAATCCTTGGGTTCTAACCTGTTGCGT (site CGGAATCCTAC)	2.33
CGGAATCCTTGGGTTCTAACCTGTTGCGT (site CGGAATCCTAG)	0.345
CGGAATCCTTGGGTTCTAACCTGTTGCGT (site CGGAATCCTAT)	1.19
CGGACGTCTTGGGTTCTAACCTGTTGCTG (site CGGACGTCTCA)	1.69
CGGACGTCTTGGGTTCTAACCTGTTGCTG (site CGGGCGTCTAA)	0.0605
CGGACTGCTTGGGTTCTAACCTGTTGCCT (site ACCTGACCTCC)	0.0853
CGGACTGCTTGGGTTCTAACCTGTTGCCT (site CGGACTGCTAG)	0.374
CGGAGCCCTTGGGTTCTAACCTGTTGCCA (site CGGAACCCTCG)	0.0889
CGGAGCCCTTGGGTTCTAACCTGTTGCCA (site CGGAGCCCTTG)	0.883
CGGAGTCCTTGGGTTCTAACCTGTTGCTA (site CGGAGTCCTTA)	0.774
CGGAGTCCTTGGGTTCTAACCTGTTGCTA (site CGGCGTCCTTA)	0.113
CGGAGTCCTTGGGTTCTAACCTGTTGCTA (site CGGGGTCCTTA)	0.0775
CGGAGTCCTTGGGTTCTAACCTGTTGCTA (site CGGTGTCCTTA)	0.102
CGGCAGTCTTGGGTTCTAACCTGTTGCGT (site CGACAGTCTAC)	2.34
CGGCAGTCTTGGGTTCTAACCTGTTGCGT (site CGGCAGTCTAC)	2.6

Sequence	recombinant barcode read abundance (log10)
CGGCCCTCTTGGGTTCTAACCTGTTGCCT (site CAGCCCTCTAG)	1.23
CGGCCCTCTTGGGTTCTAACCTGTTGCCT (site CCGCCCTCTAG)	0.29
CGGCCCTCTTGGGTTCTAACCTGTTGCCT (site CGGCCCTCTAG)	2.52
CGGCCCTCTTGGGTTCTAACCTGTTGCCT (site CTGCCCTCTAG)	0.185
CGGCCGACTTGGGTTCTAACCTGTTGCGG (site CGGCCGACTCC)	2.36
CGGCCGACTTGGGTTCTAACCTGTTGCGG (site CGGGCGCCTCC)	0.184
CGGCTATCTTGGGTTCTAACCTGTTGCCT (site CGGCTATCTAG)	0.194
CGGCTATCTTGGGTTCTAACCTGTTGCCT (site TGGCTATCTAG)	0.0495
CGGCTCACTTGGGTTCTAACCTGTTGCCT (site CGGCTCACTAG)	1.66
CGGCTCACTTGGGTTCTAACCTGTTGCCT (site CGGCTGACTAG)	0.123
CGGGAAGCTTGGGTTCTAACCTGTTGCCT (site CGGGAAGCTAG)	1.61
CGGGAAGCTTGGGTTCTAACCTGTTGCCT (site CGGGGAGCTCG)	0.287
CGGGACCCTTGGGTTCTAACCTGTTGCCT (site CGGGACCCTAG)	1.26
CGGGACCCTTGGGTTCTAACCTGTTGCCT (site CGTGACCCTAA)	0.634
CGGGCAGCTTGGGTTCTAACCTGTTGCCT (site CGAGCAGCTAG)	0.0303
CGGGCAGCTTGGGTTCTAACCTGTTGCCT (site CGCGCAGCTAG)	0.0844
CGGGCAGCTTGGGTTCTAACCTGTTGCCT (site CGGGCAGCTAG)	0.0664
CGGGCAGCTTGGGTTCTAACCTGTTGCCT (site CGTGCAGCTAG)	0.156
CGGGCCACTTGGGTTCTAACCTGTTGCGT (site CGGCCCACTCC)	0.175
CGGGCCACTTGGGTTCTAACCTGTTGCGT (site CGGGCCACTAC)	2.99
CGGGCGTCTTGGGTTCTAACCTGTTGCTT (site CGGACGTCTCA)	0.148
CGGGCGTCTTGGGTTCTAACCTGTTGCTT (site CGGGCGTCTAA)	1.46

Sequence	recombinant barcode read abundance (log10)
CGGTCCTCTTGGGTTCTAACCTGTTGCGC (site CGGGCCTCTGT)	0.0542
CGGTCCTCTTGGGTTCTAACCTGTTGCGC (site CGGTCCTCTGC)	2.63
CGGTCTACTTGGGTTCTAACCTGTTGCCT (site CAGTCTACTAG)	0.0894
CGGTCTACTTGGGTTCTAACCTGTTGCCT (site CCGTCTACTAG)	0.264
CGGTCTACTTGGGTTCTAACCTGTTGCCT (site CGGTCTACTAG)	0.219
CGGTCTACTTGGGTTCTAACCTGTTGCCT (site CTGTCTACTAG)	0.0592
CGGTCTGCTTGGGTTCTAACCTGTTGCAT (site CGGTCTGCTAT)	0.826
CGGTCTGCTTGGGTTCTAACCTGTTGCAT (site GCTAGGACTCA)	0.217
CGGTGTCCTTGGGTTCTAACCTGTTGCTT (site AGGTGTCCTAA)	0.0515
CGGTGTCCTTGGGTTCTAACCTGTTGCTT (site CGGTGTCCTAA)	1.21
CGGTTGCCTTGGGTTCTAACCTGTTGCGT (site CGGTCGCCTAT)	0.318
CGGTTGCCTTGGGTTCTAACCTGTTGCGT (site CGGTTGCCTAC)	2.48
CGTAATGCTTGGGTTCTAACCTGTTGCCT (site CGAAATGCTAG)	0.178
CGTAATGCTTGGGTTCTAACCTGTTGCCT (site CGCAATGCTAG)	0.234
CGTAATGCTTGGGTTCTAACCTGTTGCCT (site CGGAATGCTAG)	0.0453
CGTAATGCTTGGGTTCTAACCTGTTGCCT (site CGTAATGCTAG)	0.0999
CGTAGACCTTGGGTTCTAACCTGTTGCTA (site CGTAGACCTTA)	0.216
CGTAGACCTTGGGTTCTAACCTGTTGCTA (site TTATCCGCTAG)	0.0216
CGTAGGACTTGGGTTCTAACCTGTTGCCT (site AGTAGGACTAG)	0.0846
CGTAGGACTTGGGTTCTAACCTGTTGCCT (site CGTAGGACTAG)	0.209
